Legend:
DCC α-fragment [1] = assay: DCC α-fragment Western blot, mouse ex vivo cochlea (spiral ganglion); type: cell-based, CD-1 mice; details: postnatal day 21 cochlea, 1 μM, 24 h, normalized to actin
Text: (§1) Previous reports have shown that DCC (deleted in colorectal cancer) is a γ-secretase substrate. DCC is the receptor for the guidance molecule, netrin, and its activation results in neuronal axon outgrowth, axon turning and synapse formation. Embryonic spinal cords of presenilin knockout mice treated display persistent expression of the DCC α-fragment; these fragments can enhance netrin-DCC mediated events, including axon outgrowth in cultured motor neurons (Taniguchi et al., 2003, J. Biol. Chem., 278:30425-30428, and Bai et al., 2011, Cell, 144(1): 106-18). The following studies were performed using GSM, “RO”, as well as the GSI, Compound I. RO has the structure:
Cochleae were obtained from postnatal day 21 CD-1 mice. An opening was made in the bone at the cochlear apex to allow for fluid flow. Cochlea were incubated in serum-free growth media (DMEM-F12, N2 and B27 serum supplements, penicillin/streptomycin) with 1 μM RO or 1 μM Compound I. After 24 h, spiral ganglion were isolated and processed for Western blot. Membranes were probed with a DCC antibody recognizing the intracellular domain and bands were normalized to actin.

DCC α-fragment [2] = assay: DCC α-fragment Western blot of cochlea after round window delivery in vivo; set-up: species or system CBA/J mice; details: 2% in vehicle, 2 μl bilaterally to the round window, one week later
Procedure: Compound I (2% in vehicle, 2 μl) or vehicle (2 μl) was delivered bilaterally to the round window of CBA/J mice. One week later, cochlea were collected and processed for Western blot. Both cochlea from two animals were used to generate each data point. Cochlea were homogenized in 50 μL radioimmunoprecipitation assay buffer then allowed to lyse further at 4° C. for 1 h. Bone was spun out and 4× sample loading buffer added. Samples were run on a 4-15% TGX gradient gel (BioRad, Hercules, Calif.) and transferred to a nitrocellulose membrane and blocked with Odyssey Blocking Buffer (LI-COR, NE). Blots were probed with mouse DCC (BD Biosciences, San Jose, Calif.) at 1:500, and rabbit actin (loading control) antibodies (Li-Cor, NE) in blocking buffer containing 0.1% Tween-20. Membranes were washed with PBS/0.1% Tween then incubated in secondary antibody (goat anti-mouse IRDye 680LT and goat anti-rabbit IRDye 800LT, both from LI-COR, NE) diluted 1:10,000 in blocking buffer containing 0.1% Tween-20 and 0.01% SDS. Membranes were washed in PBS then imaged on a LiCor Odyssey Classic scanner and the DCC α-fragment quantified using ImageJ.

DCC α-fragment [3] = assay: DCC α-fragment Western blot, mouse ex vivo embryonic spinal cord; type: cell-based, CD-1 mice; details: embryonic day 15 spinal cord segments, 1 μM, 24 h, normalized to actin
Text: as §1
Spinal cords from embryonic day 15 CD-1 mice were collected and cut into 1-2 mm segments and transferred to serum-free growth media (DMEM-F12, N2 and B27 serum supplements, penicillin/streptomycin) with 1 μM RO or 1 μM Compound I. Segments were cultured for 24 h (37° C., 5% CO2) then processed for Western blot. Membranes were probed with a DCC antibody recognizing the intracellular domain and bands were normalized to actin.

[4] = system: Type I spiral ganglion neurons; assay: Type I spiral ganglion neuron neurite outgrowth with GSIs; type: cell-based, CD-1 mice; details: 24-48 h, 0.1% DMSO
Procedure: Mouse spiral ganglion neurons (SGN) were harvested from CD-1 mice (postnatal day 3 to 5), dissociated and cultured on collagen I in serum free media. Cells were treated for 24-48 h with test compound in 0.1% DMSO then immunostained with the neurite marker, Tuj1 and imaged. Neurite length was quantified using ImageJ software (developed by NIH and available publicly). Only Tuj1^+ cells with clear bipolar morphology characteristic of Type I SGNs were quantified. The test compounds were Compound I, Compound II, and RO4929097, as well as the Notch sparing GSI, BMS-708163; NT-3 was included as positive control. […] Moreover, BMS-708163, a Notch-sparing GSI, and Compound I, a Notch inhibiting GSI, both increased type I SGN neurite outgrowth (FIG. 6C).

Q: Which results are given for C[C@H](OC(=O)NCC(F)(F)C(F)(F)F)C(=O)N[C@@H]1C(=O)Nc2ccccc2-c2ccccc21 [Compound I, (2,2,3,3,3-pentafluoropropyl)-carbamic acid (S)-1-((S)-6-oxo-6,7-dihydro-5H-dibenzo[b,d]azepin-7-ylcarbamoyl) ethyl ester]?
A: DCC α-fragment level compared to the vehicle group (DCC α-fragment [1]): Increase in α-fragment; DCC α-fragment compared to vehicle alone (DCC α-fragment [2]): approximately two fold increase; DCC α-fragment level compared to the vehicle group (DCC α-fragment [3]): Increase in α-fragment; lengths of Type I SGN neurites [4]: significant increase
